According to patent US10189796B2, “[4-(1,3,3-trimethyl-2-oxo-3,4-dihydro-1H-quinoxalin-7-yl)phenoxy]ethyloxy compound or salt thereof” (SANTEN PHARMACEUTICAL CO., LTD., priority 2015, dated 2019):

How the values were obtained:
Format in all cases: in vivo, rabbit
[1] = system: VEGF-induced retinal elevated vascular permeability model of rabbits; test: Retinal vascular permeability model evaluation test; conditions: 2% 50 μL/base agent A, intravitreal once
Method: In order to evaluate the inhibitory effect of the present compounds on VEGF-induced retinal vascular permeability, the inhibitory effect of the present compound on retinal vascular permeability in a VEGF-induced retinal elevated vascular permeability model of rabbits was evaluated. Incidentally, this effect was evaluated by calculating a leaked amount of the fluorescent dye of the base agent administered group (non-induced group), a leaked amount of the fluorescent dye of the base agent administered group (control group) and a leaked amount of the fluorescent dye of the test compound administered group.
To the test compound was added 0.01% Polysorbate 80/0.5% sodium carboxymethyl cellulose/PBS (hereinafter referred to as “base agent A”.), whereby 2% (W/V) or 8% (W/V) of the test compound suspension was prepared. Or else, to the test compound was added PEG400 (hereinafter referred to as “base agent B”.), whereby 6% (W/W) of the test compound solution was prepared.
VEGF solution: humanVEGF165 was dissolved in PBS to prepare 50 μg/mL of VEGF solution.
• 1) A mixed solution (1 mL/kg) of 5% ketamine hydrochloride injection solution and 2% xylazine hydrochloride injection solution with the ratio of 7:1 was intramuscularly administered to rabbits (Dutch male rabbits), and the rabbits were anesthetized. • 2) Tropicamide-phenylephrine hydrochloride ophthalmic solution (trade name: Midlin P) was eye dropped to maintain pupillary mydriasis, and then, the VEGF solution was intravitreally administered. Incidentally, PBS was intravitreally administered to the base agent administration group (non-induced group). • 3) Fluorescein was intravenously administered 2 days after intravitreal administration of VEGF. Two hours after the intravenous administration of fluorescein, an amount of the leaked fluorescent dye in the vitreous body was measured by using a fluorophotometer. (Test Method) • 1) One week before or 4 weeks before VEGF-induction, 50 μL of the test compound suspension (prepared by the base agent A) was intravitreally administered once, or 5 μL of the test compound solution (prepared by the base agent B) was intravitreally administered once. Incidentally, in the base agent administered group (non-induced group) and the base agent administered group (control group), the base agent A was used in place of the test compound suspension, or the base agent B was used in place of the test compound solution. • 2) Inhibition ratio of elevated retinal vascular permeability was calculated according to the following calculation formula. (Calculation Formula) Inhibitory ratio (%) on elevated retinal vascular permeability of the test compound administered group=100×{1−(average value of a leaked fluorescent dye amount in the test compound administered group−average value of a leaked fluorescent dye amount in the base agent administered group (non-induced group))/(average value of a leaked fluorescent dye amount in the base agent administered group (control group)−average value of a leaked fluorescent dye amount of the base agent administered group (non-induced group))}

[2] = system: ovalbumin actively sensitized allergic conjunctivitis model of rabbits; test: Allergic conjunctivitis model evaluation test; conditions: eye drop 50 μL four times a day for 4 days plus once, 0.5 hour after challenge
Method: In order to evaluate an anti-allergic action of the present compounds on allergic conjunctivitis, an inhibitory effect on hyperemia in an ovalbumin actively sensitized allergic conjunctivitis model of rabbits was investigated. Incidentally, this effect was evaluated by calculating an inhibitory ratio from the score of the base agent administered group (control group) and the score of the test compound administered group.
A base agent containing a general additive(s) was added to the test compound to prepare test compound suspensions with 1% (WN) and 3% (W/V).
By using male JW rabbits, ovalbumin (200 μg/mL/physiological saline solution) adsorbed on aluminum hydroxide gel was injected 200 μL per eye into bulbar conjunctiva of both eyes of rabbits, respectively, to perform active sensitization.
After 14 days from sensitization or later, the test compound suspension was eye-dropped four times a day for 4 days, and then, at the next day, it was eye-dropped (instillation dose: 50 μL/time) once to both eyes. Incidentally, the base agent was similarly eye-dropped to the base agent administered group (control group).
One hour after the final eye dropping of the test compound suspension, a physiological saline solution containing 0.02% (W/V) of ovalbumin was administered from rabbit ear vein at a dose of 1.5 mL per 1 kg of rabbit to induce allergic conjunctivitis.
After 0.5 hour of the challenge, the degree of hyperemia symptoms of both ocular conjunctiva of rabbits was evaluated according to the following criteria, and the average value of the total of these scores was calculated. […]

[3] = system: paracentesis induced intraocular inflammation model of rabbits; test: Anterior eye inflammation model evaluation test; conditions: 3% (W/V) suspension, eye dropped 50 μL four times; 120 minutes after primary puncture
Method: In order to evaluate an anti-inflammatory action of the present compound on anterior eye inflammation, an inhibitory effect on a number of infiltrated cells into aqueous humor in a paracentesis induced intraocular inflammation model of rabbits was investigated. Incidentally, this effect was evaluated by calculating an inhibitory ratio from a number of infiltrated cells into aqueous humor in the base agent administered group (control group) and a number of infiltrated cells into aqueous humor in the test compound administered group.
A base agent containing a general additive(s) was added to the test compound to prepare a test compound suspension with 3% (W/V).
• 1) Male JW rabbits underwent local anesthesia with 0.4% oxybuprocaine hydrochloride (trade name: Benoxil ophthalmic solution 0.4%), and about 0.1 mL of anterior aqueous humor was collected by using a syringe for tuberculin so as not to touch the iris to carry out primary puncture, whereby an inflammatory response was induced. • 2) Thirty minutes before the primary puncture, heparin was intravenously administered so as to be about 50 unit/kg. • 3) The test compound suspension was eye dropped (instillation dose: 50 μL/time) to both eyes in total four times, 210 minutes before, 60 minutes before, 15 minutes after, and 90 minutes after the primary puncture. […]

Row | Compound | Inhibitory ratio (%) on elevated vascular permeability ([1]; 4 weeks before VEGF induction) [%] | Inhibitory ratio (%) on elevated vascular permeability ([1]; 1 week before VEGF induction) [%] | Eye congestion inhibitory ratio (%) ([2]; 3% suspension) | Eye congestion inhibitory ratio (%) ([2]; 1% suspension) | inhibitory ratio (%) of the number of infiltrated cells into aqueous humor [3] [%]
1 | CCCC(=O)Oc1ccc(-c2ccc3c(c2COc2cc(F)ccc2C)N(C)C(=O)C(C)(C)N3)c(OC)c1 [Control compound D, 7-(4-butyryloxy-2-methoxyphenyl)-8-(5-fluoro-2-methylphenoxymethyl)-1,3,3-trimethyl-3,4-dihydro-1H-quinoxalin-2-one, reference compound] | 38 |  |  |  | 
2 | COc1ccc(-c2ccc3c(c2COc2cc(F)ccc2C)N(C)C(=O)C(C)(C)N3)c(OC)c1 [Control compound E, 7-(2,4-dimethoxyphenyl)-8-(5-fluoro-2-methyl-phenoxymethyl)-1,3,3-trimethyl-3,4-dihydro-1H-quinoxalin-2-one, reference compound] |  | 47 |  |  | 
3 | COc1cc(OC[C@@H](O)CC#N)ccc1-c1ccc2c(c1COc1cc(F)ccc1C)N(C)C(=O)C(C)(C)N2 [Compound 5-2, (S)-7-[4-(3-cyano-2-hydroxypropyl)oxy-2-methoxyphenyl]-8-(5-fluoro-2-methyl-phenoxymethyl)-1,3,3-trimethyl-3,4-dihydro-1H-quinoxalin-2-one] | 91 | 96 | 35 |  | 
4 | COc1cc(OC[C@H](C)OC(=O)CN(C)C)ccc1-c1ccc2c(c1COc1cc(F)ccc1C)N(C)C(=O)C(C)(C)N2 [Compound 11-1, (S)-7-[4-[2-(N,N-dimethylaminoacetoxy)propyl]oxy-2-methoxyphenyl]-8-(5-fluoro-2-methylphenoxymethyl)-1,3,3-trimethyl-3,4-dihydro-1H-quinoxalin-2-one] |  |  |  | 44 | 37
